Assay results reported in patent publication US20240409496A1, “SPERMINE DERIVATIVES AS HEPARIN ANTIDOTES” (CONSEJO SUPERIOR DE INVESTIGACIONES CIENTÍFICAS (CSIC), priority 2021, published 2024).

Experiments:
[1] = Surface Plasmon Resonance (SPR) on heparin-functionalized chips; assay type: binding
Procedure: Surface Plasmon Resonance (SPR): Affinity experiments between inhibitors and heparin were performed on an Open SPR™(Nicoya). All measurements were performed at 25° C. using a working buffer of 25 mM Tris at pH 7.5. Biotin-loaded sensor chips (NICOYA) were further functionalized with streptavidine (50 μg/mL) and later with biotin-heparin (50 μg/mL). Binding experiments to heparin were performed by injecting inhibitors at desired concentrations and at a rate of 40 μL/min. Between binding assays, the surface was regenerated by exposure to an injection of 10 mM HCl. Fitting has been performed by Trace Drawer software using a ‘one-to-one two-state algorithm’, which considers a 1:1 binding with a further equilibrium like a conformational change. Results obtained from three independent experiments at three different concentrations of the ligands were fit globally to render the corresponding on/off rate constants and the apparent dissociation constants (KD^app Table 1, as shown below).
Binding of the spermine derivatives to the heparin target. Surface Plasmon Resonance (SPR) on heparin-functionalized chips were used to determine the apparent dissociation constant of selected molecules (KD^app, Table 1).

[2] = test system: freshly extracted mouse blood with Hep; assay: Ex vivo blood coagulation assay; conditions: for reversal of anticoagulant effect of Hep in mouse blood (clot formation): Hep 130 μM, various ligand concentrations, 15 minutes, FIG. 3A
Procedure: Ex vivo blood coagulation assays: Freshly collected mouse blood was collected and directly used without further treatment. 300 μL aliquots were prepared. To them, Hep (130 μM), and various concentration of ligand (3AC or 3FF) were added. The samples of the different conditions were added to an Eppendorf tube and a picture was taken after 15 minutes. The clot formation was confirmed by turning around the Eppendorf vials.
Reversing the anticoagulant activity of heparin: In order to check the efficacy of the antidotes in a more representative environment, 3FF and 3AC were tested in real blood coagulation assays. Thus, it has been monitored the coagulation of freshly extracted mouse blood in the absence or presence of Hep, and upon addition of different concentrations of 3FF and 3AC.

heparinized mice = assay: In vivo tail transection assay with mice; design: species or system mouse; conditions: for reversal of Hep activity in vivo (bleeding of heparinized mice): Hep 100 IU/kg i.v. followed by 2.2 or 4.4 mg/kg, blood collected 10 minutes, FIG. 3B; for blood loss of heparinized mice at the highest doses: Hep 100 IU/kg, highest dose (4.4 mg/kg)
Procedure: In vivo tail transection assays with mice: Eight-weeks old CD-1 male mice (Janvier-Labs) were used for the study. Animals were housed under a 12 h light: dark cycle in an environmentally controlled room and free access to water and food. Mice were randomly assigned into 6 groups (n=6 for each group). Animals were anesthetized by i.p. injections of 0.465 mg/kg xylazine (Rompun, Bayer DVM) and 1.395 mg/kg ketamine (Imalgene 100, Merial Laboratorios). After anesthetizing them, different solutions were injected intravenously according to the assigned group: Saline group (only saline was given), Hep group (Hep injection, 100 IU/kg), 3AC (two groups, Hep injection followed by injection of 3AC at 2.2 mg/kg or 4.4 mg/kg) and 3FF (two groups, Hep injection followed by injection of 3FF at 2.2 mg/kg or 4.4 mg/kg). Two additional control groups (n=3) were included in which only the ligand (3AC or 3FF) at the highest dose (4.4 mg/kg) was injected. At 5 minutes after injections, tails were transected at 5 mm from the tip and immediately inserted in a tube containing 1 ml of saline buffer immersed in a water bath at 37° C., where the blood draining out of the wound was collected for 10 minutes. The blood draining out from the wound was collected in each tube. Tails were let bleed during 10 minutes. The total blood volume in each tube was quantified by spectrophotometry (absorbance at 414 nm) from a standard curve that was constructed with known volumes of blood hemoglobin concentration and corresponding absorbance value. Statistical analysis of the data was done with Kaleida Graph 4.5.4 using ANOVA.
3FF and 3AC were tested in an in vivo coagulation model. It was thus performed the tail transection assay with mice after consecutive injection of Hep, and the drugs at two different doses each (FIG. 3B). The control groups injecting saline or Hep, and those corresponding to just the drugs were also included.

[FXa-Hep-ATIII] complex = Blood coagulation factor in vitro enzymatic assay (FXa/ATIII/Hep, chromogenic peptide hydrolysis); assay type: biochemical, human; conditions: for in vitro potency as Hep antidote (recovery of FXa activity), rank order: 1 μM of each binder, Hep 0.1 IU/mL, FIG. 2B; for activity as Hep antidote in the enzymatic assay compared with ciraparantag: percent hydrolysis at 30 min, FIG. 2C
Procedure: Blood coagulation factor in vitro enzymatic assays: Recombinant antithrombin Ill and coagulation Factor Xa were obtained from the Berichrom Heparin test, supplied by SIEMENS. Following the indications of the test kit, stock solutions were prepared as follows: Human antithrombin III (1 IU/mL), Factor Xa reagent (0.4 μg/mL, human plasma fraction with the additives Tris, sodium chloride and EDTA) and a chromogenic substrate specific for factor Xa (4 mM of Z-D-Leu-Gly-ArgANBA-methyl amide). On the other hand, 4-nitroaniline (Sigma Aldrich) was added to the substrate solution at a concentration of 1.6 mM and was used as internal standard to quantify the hydrolysis of the chromogenic substrate. Heparin (sodium salt from porcine intestinal mucosa, polydisperse, from 6000 to 30000 Daltons) was purchased from Sigma-Aldrich. All compounds were dissolved in mili-Q water at the desired stock concentrations prior to start the assays and kept at 4° C. Various concentrations of the ligand, heparin (0.1 IU/mL), human antithrombin Ill solution (3.5 μL) and Factor Xa reagent solution (35 μL) were added in order to an Eppendorf and brought to a total volume of 145 μL. Then, 20 μL of Reagent Substrate solution was added to start the experiment and the mixture was vigorously shaken at 25° C. 20 μL samples were taken at minutes 5/10/15/20/30/50/80/120, diluted with 40 μL of acetic acid (20% v/v), and injected in the analytical HPLC. The gradient ranged from 5% ACN (0.1% formic acid) in water (0.1% formic acid) to 100% ACN in 24 minutes using a 15×4.6 mm KROMAPHASE C18 5.0 μm column (retention time of cleaved chromophore 9.1 min, retention time of chromogenic substrate 13.9 min, retention time of 4-nitroaniline 15.4 min). Concentrations of reagents have been adjusted compared with previous studies with the intention to slow down the total exhaustion of peptide substrate. In this way the activity can be more carefully modulated and any change is easier to detect. FXa/ATIII activity was represented as percent of hydrolysis, which was calculated from the normalized area of cleaved peptide at 405 nm at each corresponding time point. Experiment carried out in absence of heparin was considered as maximum of activity while experiment with heparin and no ligand was considered as negative control (maximum inhibition of FXa by heparin). Concentration of heparin was selected for the measurement to render a significant inhibition within experimental time, while allowing the reaction to proceed.
In vitro inhibition of heparin activity. The effect of the binders as Hep antidotes can be tested in vitro using an enzymatic reaction related to the blood coagulation process (FIG. 2A). This test employs human recombinant coagulation factor Xa (FXa) and antithrombin III (ATIII), with the synthetic peptide Z-D-LGR-N(Me)ANBA as the substrate of the FXa protease to mimic the prothrombin to thrombin transformation that triggers blood coagulation. Heparin forms a ternary complex with ATIII and FXa with a low hydrolytic activity, as a model for the anticoagulation effect of Hep. The addition of an efficient Hep binder dissociates the [FXa-Hep-ATIII] complex, thus releasing the active form of FXa that cleaves the substrate. The peptide hydrolysis can be readily monitored by analytical HPLC thanks to the ANBA chromophore, as an accurate measurement of the reaction kinetics.
In parallel experiments, the addition of equal concentration (1 μM) of each of the binders produces a different level of recovery of the FXa activity. […] Actually, several selected molecules derived from spermine were tested in the enzymatic assay (FIG. 2C) most of them showing activity in the reversal of the heparin action.

Row | Structure (SMILES) | affinity to Hep compared with ciraparantag [1] | reversal of anticoagulant effect of Hep in mouse blood (clot formation) [2] | ex vivo antidote quality, 3AC compared with 3FF ([2]; equal doses, qualitative) | reversal of Hep activity in vivo (bleeding of heparinized mice) (heparinized mice) | blood loss of heparinized mice at the highest doses (heparinized mice) | in vivo reversal potency, 3AC compared with 3FF (heparinized mice; tail transection, mice) | in vitro potency as Hep antidote (recovery of FXa activity), rank order ([FXa-Hep-ATIII] complex) | activity as Hep antidote in the enzymatic assay compared with ciraparantag ([FXa-Hep-ATIII] complex)
1 | Oc1ccccc1CNCCCNCCCCNCCCNCc1ccc2c(c1)Cc1ccccc1-2 [Compound 3AC, 2-(16-(9H-fluoren-2-yl)-2,6,11,15-tetraazahexadecyl)phenol] | higher affinity to Hep than ciraparantag | able to revert the anticoagulant effect of Hep in a dose-response manner | better antidote than 3FF | efficient antidotes of Hep also in vivo, strongly reducing the bleeding of heparinized mice | reversed to values very similar to those of the control group injected with saline | more potent reversal agent than 3FF | <3AC | even more potent
2 | Oc1ccccc1CNCCCNCCCCNCCCNCc1c(O)ccc2ccccc12 [Compound 3AF, 1-(16-(2-hydroxyphenyl)-2,6,11,15-tetraazahexadecyl)naphthalen-2-ol] | – | – | – | – | – | – | 3AF (open circles)<3FF | –
3 | Oc1ccccc1CNCCCNCCCCNCCCNCc1ccc2ccccc2c1O [Compound 3AG, 2-(16-(2-hydroxyphenyl)-2,6,11,15-tetraazahexadecyl)naphthalen-1-ol] | – | – | – | – | – | – | 3AG (rhombuses)<3AF | –
4 | Oc1ccccc1CNCCCNCCCCNCCCNCc1cccc2ccccc12 [Compound 3AL, 2-(16-(naphthalen-1-yl)-2,6,11,15-tetraazahexadecyl)phenol, reference compound] | – | – | – | – | – | – | 3AL (X symbols)≤3AG | –
5 | Oc1ccc2ccccc2c1CNCCCNCCCCNCCCNCc1c(O)ccc2ccccc12 [Compound 3FF, 1,1′-(2,6,11,15-tetraazahexadecane-1,16-diyl)bis(naphthalen-2-ol)] | higher affinity to Hep than ciraparantag | able to revert the anticoagulant effect of Hep in a dose-response manner | – | efficient antidotes of Hep also in vivo, strongly reducing the bleeding of heparinized mice | reversed to values very similar to those of the control group injected with saline | – | 3FF (inverted solid triangles)<3AC | comparable with the drug ciraparantag
